Data on eleven compounds can be found in PubChem BioAssay (NCI).

Values joined by “and” are separate entries in the source; they are usually repeats but may differ in a detail not shown here. Equal entries are not always repeated.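 A five-concentration, 48-hour dose response in 96-well plates underlies each endpoint, interpolated linearly between surrounding concentrations. Here, GI50 denotes the concentration required for 50% inhibition of growth. The concentration for full growth arrest is given as TGI.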

Some test systems named below: SNB-19 CNS; 786-0 renal; SK-MEL-28 melanoma; SK-MEL-2 melanoma; RPMI-8226 leukemia; NCI-H460 lung; RXF 393 renal; HL-60(TB) leukemia; DU-145 prostate; MDA-MB-231 breast.
What all share (assay): inhibition of tumour cell growth, NCI panel, 48 h

Regarding `O=C1C=CC(=Nc2ccccc2)c2ccccc21`, the TGI was greater than 100 µM in the assay with SNB-19 CNS; 24.7 µM in the assay with 786-0 renal; 42 µM in the assay on SK-MEL-28 melanoma; 8.15 µM in the assay with SK-MEL-2 melanoma; 38.3 µM in the assay with RPMI-8226 leukemia; 13.8 µM in the assay on NCI-H460 lung. Further, the TGI in the assay on RXF 393 renal turned out to be 23.2 µM; with HL-60(TB) leukemia, 21.7 µM; with DU-145 prostate, 3.14 µM; in the assay on MDA-MB-231 breast it was 11.3 µM.

For the compound `CCN(Cc1ccccc1Cl)c1ccc(CO)c(Cl)c1`, the GI50 in the assay with SNB-19 CNS was 13.2 µM; in the assay with 786-0 renal, 12.8 µM; with SK-MEL-28 melanoma, 11.8 µM; with SK-MEL-2 melanoma, 2.39 µM; in the assay with RPMI-8226 leukemia it was 1.91 µM; in the assay on NCI-H460 lung, 0.296 µM. Besides, the GI50 with RXF 393 renal is 3.75 µM; in the assay on HL-60(TB) leukemia, 13.9 µM; with DU-145 prostate, 14 µM; in the assay with MDA-MB-231 breast it was 13.1 µM. For the same compound, the TGI in the assay with SNB-19 CNS turned out to be 26.3 µM; in the assay on 786-0 renal it was 26.1 µM; with SK-MEL-28 melanoma, 24.7 µM; with SK-MEL-2 melanoma it was 16.1 µM; in the assay with RPMI-8226 leukemia, 19 µM; in the assay with NCI-H460 lung, 11.1 µM. In addition, the TGI in the assay with RXF 393 renal was determined as 20 µM; in the assay with HL-60(TB) leukemia, 33.8 µM; in the assay with DU-145 prostate, 27.8 µM; in the assay with MDA-MB-231 breast it was 26.2 µM.

With `CCCC[n+]1c(/C=C\c2c(OC)cc(OC)cc2OC)ccc2ccccc21`, the GI50 is 0.604 µM in the assay on SNB-19 CNS; 2.84 µM with 786-0 renal; 0.601 µM with SK-MEL-28 melanoma; 1.08 µM in the assay with SK-MEL-2 melanoma; 0.279 µM in the assay on RPMI-8226 leukemia; 0.574 µM with NCI-H460 lung. The GI50 with RXF 393 renal was 1.59 µM; in the assay on HL-60(TB) leukemia, 0.241 µM; in the assay on DU-145 prostate, 1.04 µM; with MDA-MB-231 breast, 1.42 µM. The TGI is 6.79 µM in the assay with SNB-19 CNS; 13 µM in the assay on 786-0 renal; 2.75 µM with SK-MEL-28 melanoma; 2.74 µM with SK-MEL-2 melanoma; 2.73 µM in the assay on RPMI-8226 leukemia; 2.83 µM in the assay on NCI-H460 lung. Moreover, the TGI in the assay on RXF 393 renal was 5.87 µM; with HL-60(TB) leukemia it was 1.39 µM; with DU-145 prostate it was 11.1 µM; in the assay with MDA-MB-231 breast, 4.62 µM.

For the compound `COc1cccc(-n2cc(-c3nc(Nc4cc(C)[nH]n4)c4ccccc4n3)nn2)c1`, the GI50 is 6.61 µM in the assay with SNB-19 CNS; 2.89 µM in the assay on 786-0 renal; 6.05 µM in the assay on SK-MEL-28 melanoma; 1.71 µM in the assay with SK-MEL-2 melanoma; 3.57 µM in the assay with RPMI-8226 leukemia; 2.65 µM in the assay on NCI-H460 lung. Moreover, the GI50 was 1.45 µM in the assay with RXF 393 renal, 2.85 µM in the assay with HL-60(TB) leukemia, 5.51 µM with DU-145 prostate and 3.02 µM with MDA-MB-231 breast. The TGI with SNB-19 CNS was 15.7 µM; with 786-0 renal, 9.85 µM; in the assay on SK-MEL-28 melanoma, 13.9 µM; with SK-MEL-2 melanoma it was 9.27 µM; with RPMI-8226 leukemia it was 13.8 µM; in the assay on NCI-H460 lung it was 11.3 µM. The TGI in the assay with RXF 393 renal came to 8.92 µM; with HL-60(TB) leukemia it was 14.5 µM; in the assay on DU-145 prostate it was 11.7 µM; in the assay on MDA-MB-231 breast, 15.6 µM.

For the compound `Cc1[nH]c(C(=O)Nc2ccccc2OC2CCNCC2)c(Cl)c1Cl`, the GI50 with SNB-19 CNS is 1.25 µM; in the assay on 786-0 renal, 0.817 µM; in the assay with SK-MEL-28 melanoma, 1.01 µM; in the assay on SK-MEL-2 melanoma, 0.932 µM; with RPMI-8226 leukemia it was 1.04 µM; in the assay with NCI-H460 lung it was 0.984 µM. The GI50 with RXF 393 renal was 0.816 µM; in the assay on HL-60(TB) leukemia, 1.05 µM; in the assay with DU-145 prostate it was 1.05 µM; with MDA-MB-231 breast it was 0.895 µM. For the same compound, the TGI in the assay on SNB-19 CNS was found to be 3.44 µM; in the assay with 786-0 renal, 1.57 µM; with SK-MEL-28 melanoma, 1.97 µM; in the assay with SK-MEL-2 melanoma, 1.91 µM; in the assay with RPMI-8226 leukemia, 2.59 µM; with NCI-H460 lung, 1.93 µM. Also, the TGI came out at 1.56 µM with RXF 393 renal, 2.26 µM in the assay with HL-60(TB) leukemia, 2.04 µM in the assay with DU-145 prostate and 1.76 µM with MDA-MB-231 breast.

`Cc1cc2nc3ccc(=[N+](C)C)cc-3sc2cc1N`: the GI50 was 0.782 µM in the assay on SNB-19 CNS; 1.82 µM and 0.76 µM in the assay with 786-0 renal; 1.64 µM and 1.65 µM in the assay with SK-MEL-28 melanoma; 1.31 µM and 2.26 µM with SK-MEL-2 melanoma; 0.218 µM and 0.0867 µM in the assay on RPMI-8226 leukemia; 0.457 µM and 1.56 µM in the assay with NCI-H460 lung. The GI50 in the assay with RXF 393 renal is 1.7 µM and 1.94 µM; in the assay on HL-60(TB) leukemia, 0.214 µM and 0.181 µM; with DU-145 prostate, 1.19 µM and 1.69 µM; with MDA-MB-231 breast it was 0.739 µM and 0.284 µM. Further, the TGI in the assay on SNB-19 CNS is 10.5 µM and 8.99 µM and 9.55 µM; with 786-0 renal, 10.1 µM and 17.7 µM and 4.3 µM; in the assay on SK-MEL-28 melanoma, 4.65 µM and 27 µM and 3.56 µM; in the assay with SK-MEL-2 melanoma, 5.62 µM and 17 µM and 8.27 µM; in the assay on NCI-H460 lung, 7.56 µM and 24.5 µM and 11.8 µM; in the assay with RXF 393 renal it was 6.93 µM and 22.2 µM and 8.17 µM. In the assay with MDA-MB-231 breast, the TGI is 7.51 µM and 7.94 µM and 1.33 µM.

As for `COC1=C(Br)C(O)C2(C=C1Br)CC(C(=O)NCCCCNC(=O)C1=NOC3(C=C(Br)C(OC)=C(Br)C3O)C1)=NO2` (configuration not stated), the TGI was greater than 100 µM in the assay with SNB-19 CNS; greater than 100 µM with 786-0 renal; greater than 100 µM with SK-MEL-28 melanoma; 52.8 µM in the assay on SK-MEL-2 melanoma; 50.5 µM with RPMI-8226 leukemia; greater than 100 µM with NCI-H460 lung. In addition, the TGI is 69.6 µM in the assay with RXF 393 renal, 47.4 µM with HL-60(TB) leukemia, greater than 100 µM in the assay on DU-145 prostate and 66.6 µM with MDA-MB-231 breast.

Consider `COc1ccc2c(Cc3c4ccccc4cc4ccccc34)cncc2c1O`, for which the TGI is greater than 41.6 µM in the assay on SNB-19 CNS; 23.4 µM with 786-0 renal; 72.3 µM in the assay on SK-MEL-28 melanoma; 17.5 µM in the assay on SK-MEL-2 melanoma; 17 µM in the assay on RPMI-8226 leukemia; 3.94 µM in the assay with NCI-H460 lung. Moreover, the TGI was greater than 21.6 µM with RXF 393 renal, 8.36 µM with HL-60(TB) leukemia, greater than 22.4 µM in the assay on DU-145 prostate and 8.95 µM with MDA-MB-231 breast.

For the compound `C/C(=N\NC(=S)N1CCN(C2CCCCCC2)CC1)c1ccccn1`, the GI50 in the assay with SNB-19 CNS is 3.17 µM; in the assay with 786-0 renal it was 0.0121 µM; with SK-MEL-28 melanoma, 4.08 µM; with SK-MEL-2 melanoma it was 2.02 µM; in the assay on RPMI-8226 leukemia it was less than 0.001 µM; with RXF 393 renal it was 2.45 µM. The GI50 in the assay on HL-60(TB) leukemia was less than 0.001 µM. Also, the TGI in the assay with SNB-19 CNS was 8.3 µM; in the assay with 786-0 renal, 3.58 µM and 1.95 µM; in the assay with SK-MEL-28 melanoma, 2.25 µM; with SK-MEL-2 melanoma it was 9.66 µM and 3.16 µM; in the assay with NCI-H460 lung, 1.45 µM; in the assay with RXF 393 renal, 2.5 µM. Also, the TGI with DU-145 prostate was 2.44 µM; in the assay with MDA-MB-231 breast it was 2.85 µM.

As for `CC(=O)OC12c3ccccc3-c3ccccc3C1C(C(=O)O)C2(Cl)C(=O)O` (configuration not stated), the TGI with SNB-19 CNS, with 786-0 renal, with SK-MEL-28 melanoma, with SK-MEL-2 melanoma, in the assay on RPMI-8226 leukemia and in the assay on NCI-H460 lung was greater than 10 µM in each case. In addition, the TGI in the assay with RXF 393 renal, with HL-60(TB) leukemia, in the assay on DU-145 prostate and with MDA-MB-231 breast was greater than 10 µM in each case.

With `C=C1CC[C@@H]2[C@](C)(COC(C)=O)[C@H](OC(C)=O)CC[C@@]2(C)[C@@H]1CC(Nc1ccc(S(=O)(=O)Nc2cc(C)on2)cc1)C1=CCOC1=O` (some centres not stated), the GI50 was 3.12 µM in the assay with SNB-19 CNS; 1.96 µM in the assay on 786-0 renal; 2.02 µM in the assay with SK-MEL-28 melanoma; 2.04 µM with SK-MEL-2 melanoma; 1.54 µM in the assay with RPMI-8226 leukemia; 2.35 µM in the assay with NCI-H460 lung. For the same compound, the GI50 in the assay on RXF 393 renal was 2.05 µM; with HL-60(TB) leukemia, 1.39 µM; in the assay with DU-145 prostate, 2.43 µM; with MDA-MB-231 breast, 2.22 µM. Further, the TGI in the assay on SNB-19 CNS came to 12.2 µM; in the assay with 786-0 renal it was 3.66 µM; in the assay with SK-MEL-28 melanoma, 4.31 µM; in the assay on SK-MEL-2 melanoma, 4.4 µM; with RPMI-8226 leukemia, 5.43 µM; in the assay with NCI-H460 lung it was 5.7 µM. The TGI in the assay with RXF 393 renal worked out at 3.84 µM; with HL-60(TB) leukemia it was 3.69 µM; in the assay on DU-145 prostate, 6.53 µM; in the assay with MDA-MB-231 breast, 5.11 µM.
